Experimental data from patent US9656959B2, “Substituted pyridines as sodium channel blockers” (Purdue Pharma L.P., priority 2010, dated 2017).
Where two headings read alike, the source gives them in different places.

Assays:
human Nav1.7 = human Nav1.7 (Homo sapiens (Human), UniProt Q15858); experiment: FLIPR or FLIPR TETRA sodium dye assay with KCl and test article pre-incubation; format: cell-based
hNav1.7 = hNav1.7 (Homo sapiens (Human), UniProt Q15858); experiment: Electrophysiology (EP) assay, whole-cell patch clamp; format: cell-based; settings: hNav1.7 HEK-293 cells; for Ki: affinity for the inactivated state of the channel, read-out: Nav1.7 Activity (μM) EP assay Ki; for Kd: resting block dissociation constant, read-out: Nav1.7 Activity (μM) EP assay Kr
Chain of hNav1.7 (Q15858 other isoform, or with tags, fused parts or gaps): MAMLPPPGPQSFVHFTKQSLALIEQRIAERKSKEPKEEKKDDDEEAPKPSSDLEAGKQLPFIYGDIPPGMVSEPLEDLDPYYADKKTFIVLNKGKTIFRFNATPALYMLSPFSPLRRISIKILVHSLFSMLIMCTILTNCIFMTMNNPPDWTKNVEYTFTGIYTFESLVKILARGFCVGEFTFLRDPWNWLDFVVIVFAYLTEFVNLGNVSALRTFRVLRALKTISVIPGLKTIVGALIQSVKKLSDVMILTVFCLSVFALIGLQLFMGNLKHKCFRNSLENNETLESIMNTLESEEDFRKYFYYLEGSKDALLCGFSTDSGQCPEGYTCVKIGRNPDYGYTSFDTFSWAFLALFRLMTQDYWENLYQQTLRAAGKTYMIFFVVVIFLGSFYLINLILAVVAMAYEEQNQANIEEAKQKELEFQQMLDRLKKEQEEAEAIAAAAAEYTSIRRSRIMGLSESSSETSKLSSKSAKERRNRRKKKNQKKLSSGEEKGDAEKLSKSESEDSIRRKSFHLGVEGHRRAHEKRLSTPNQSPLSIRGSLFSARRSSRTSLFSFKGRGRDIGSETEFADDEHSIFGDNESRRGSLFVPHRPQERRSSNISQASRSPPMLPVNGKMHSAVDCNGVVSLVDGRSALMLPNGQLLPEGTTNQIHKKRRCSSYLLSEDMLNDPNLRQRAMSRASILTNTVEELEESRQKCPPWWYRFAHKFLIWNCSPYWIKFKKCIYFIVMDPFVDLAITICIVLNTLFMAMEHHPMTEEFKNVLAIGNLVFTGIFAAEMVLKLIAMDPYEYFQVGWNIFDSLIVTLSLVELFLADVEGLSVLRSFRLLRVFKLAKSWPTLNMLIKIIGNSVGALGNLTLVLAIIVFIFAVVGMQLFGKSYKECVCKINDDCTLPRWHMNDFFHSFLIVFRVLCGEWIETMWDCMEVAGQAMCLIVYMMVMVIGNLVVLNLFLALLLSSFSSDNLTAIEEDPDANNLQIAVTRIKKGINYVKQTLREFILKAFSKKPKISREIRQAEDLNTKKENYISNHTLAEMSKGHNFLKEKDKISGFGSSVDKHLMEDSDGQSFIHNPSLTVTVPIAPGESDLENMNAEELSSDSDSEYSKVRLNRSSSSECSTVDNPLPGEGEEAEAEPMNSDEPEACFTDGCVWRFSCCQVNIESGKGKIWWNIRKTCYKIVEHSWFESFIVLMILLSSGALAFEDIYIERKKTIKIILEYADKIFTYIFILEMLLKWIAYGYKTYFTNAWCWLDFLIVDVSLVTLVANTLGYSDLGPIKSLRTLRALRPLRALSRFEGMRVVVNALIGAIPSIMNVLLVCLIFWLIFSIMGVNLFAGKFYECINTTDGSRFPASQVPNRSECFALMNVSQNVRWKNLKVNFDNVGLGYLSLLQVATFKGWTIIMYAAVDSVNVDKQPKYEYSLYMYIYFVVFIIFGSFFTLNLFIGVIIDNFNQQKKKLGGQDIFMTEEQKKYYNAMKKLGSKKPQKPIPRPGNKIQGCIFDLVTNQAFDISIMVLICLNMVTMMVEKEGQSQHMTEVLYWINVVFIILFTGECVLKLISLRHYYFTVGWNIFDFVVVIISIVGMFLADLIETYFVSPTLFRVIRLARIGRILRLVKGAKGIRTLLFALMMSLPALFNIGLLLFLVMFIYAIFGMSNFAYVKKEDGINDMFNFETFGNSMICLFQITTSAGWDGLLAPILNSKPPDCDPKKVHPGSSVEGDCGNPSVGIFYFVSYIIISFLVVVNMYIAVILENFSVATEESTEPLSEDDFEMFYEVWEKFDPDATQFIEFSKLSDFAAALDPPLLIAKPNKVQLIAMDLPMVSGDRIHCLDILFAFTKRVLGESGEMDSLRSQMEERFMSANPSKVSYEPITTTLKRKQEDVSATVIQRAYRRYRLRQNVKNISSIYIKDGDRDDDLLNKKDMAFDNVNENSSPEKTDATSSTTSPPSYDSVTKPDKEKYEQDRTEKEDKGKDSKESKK
Method: The hNav1.7 expressing HEK-293 cells were plated on 35 mm culture dishes pre-coated with poly-D-lysine in standard DMEM culture media (Mediatech, Inc., Herndon, Va.) and incubated in a 5% CO2 incubator at 37° C. Cultured cells were used approximately 12-48 hours after plating.
On the day of experimentation, the 35 mm dish was placed on the stage of an inverted microscope equipped with a perfusion system that continuously perfuses the culture dish with fresh recording media. A gravity driven superfusion system was used to apply test solutions directly to the cell under evaluation. This system consists of an array of glass pipette connected to a motorized horizontal translator. The outlet of the shooter was positioned approximately 100 μm from the cell of interest.
Whole cell currents were recorded using the whole-cell patch clamp configuration using an Axopatch 200B amplifier (Axon Instruments, Foster City Calif.), 1322A A/D converter (Axon Instruments) and pClamp software (v. 8; Axon Instruments) and stored on a personal computer. Gigaseals were formed and the whole-cell configuration was established in voltage clamp mode, and membrane currents generated by hNav1.7 were recorded in gap-free mode. Borosilicate glass pipettes have resistance values between 1.5 and 2.0 MΩ when filled with pipette solution and series resistance (<5 MΩ) was compensated 75-80%. Signals were sampled at 50 kHz and low pass filtered at 3 kHz.
After establishing the whole-cell configuration in voltage clamp mode, voltage protocols were run to establish the 1) test potential, 2) holding potential, and 3) the conditioning potential for each cell.
After establishing the whole-cell configuration in voltage clamp mode, a standard I-V protocol was run to determine the potential at which the maximal current (Imax) is elicited. This potential was the test potential (Vt). […] This protocol also permitted determination of the holding potential at which all channels are in the resting state.
For compounds causing significant retardation of recovery from inactivation, an estimate of the affinity for the inactivated state of the channel (Ki) was generated using the following protocol. From the negative, no residual inactivation, holding potential, the cell was depolarized to the conditioning voltage for 2-5 seconds, returned to the negative holding potential for 10-20 ms to relieve fast inactivation and then depolarized to the test potential for ˜15 ms. This voltage protocol was repeated every 10-15 seconds, first to establish a baseline in the absence of the test compound, then in the presence of the test compound.
After a stable baseline was established, the test compound was applied and block of the current elicited by the test pulse assessed. In some cases, multiple cumulative concentrations were applied to identify a concentration that blocked between 40-60% of this current. Washout of the compound was attempted by superfusing with control solution once steady-state block was observed. An estimate of the K, was calculated as follows: Ki=[drug]*{FR/(1−FR)}, Eq. 1
where [drug] is the concentration of a drug, and FR=I(after drug)/I(control), Eq. 2 where I is the peak current amplitude. If multiple concentrations were used, Ki was determined from the fit of a logistic equation to FRs plotted against corresponding drug concentrations.
In the alternative, the voltage clamp protocol to examine hNav1.7 currents was as follows. First, the standard current-voltage relationship was tested by pulsing the cell from the holding voltage (Vh) of −120 mV by a series of 5 msec long square-shaped test pulses incrementing in +10 mV steps over the membrane voltage range of −90 mV to +60 mV at the pace of stimulation of 0.5 Hz. This procedure determines the voltage that elicits the maximal current (Vmax). […]

[1] = read-out: Nav1.7 Activity (μM) FLIPR assay IC50 (μM) ± SEM
[2] = recombinant Nav1.7/HEK293 cells, CoroNa Green sodium dye, veratridine + scorpion venom agonists, ± SEM

Chain of human Nav1.7 (Q15858 with tags, fused parts or gaps limits assumed): as the sequence (Q15858 other isoform, or with tags, fused parts or gaps) above

Row | Structure (SMILES) | IC50 (human Nav1.7; [1]) [µM] | Ki (hNav1.7) [µM] | Kd (hNav1.7) [µM] | IC50 (human Nav1.7; [2]) [µM]
1 | O=C(N[C@@H](Cc1c[nH]cn1)C(=O)Nc1cccc(-c2ccc(Oc3ccc(F)cc3)cc2)n1)C1CC1 [Compound 33, (S)-N-(1-((6-(4-(4-fluorophenoxy)phenyl)pyridin-2-yl)amino)-3-(1H-imidazol-4-yl)-1-oxopropan-2-yl)cyclopropanecarboxamide] | 0.11 ± 0.02 | 0.206 ± 0.04 | 5.31 ± 0.56 | 
2 | O=C(CO)N[C@@H](CO)C(=O)Nc1cccc(-c2ccc(Oc3ccc(F)cc3)cc2)n1 [Compound 60, (S)-N-{6-[4-(4-Fluoro-phenoxy)-phenyl]-pyridin-2-yl}-3-hydroxy-2-(2-hydroxy-acetylamino)-propionamide] |  | 0.113 ± 0.05 | 4.94 ± 0.81 | 0.46 ± 0.08
3 | CC(=O)N[C@@H](Cc1ccccc1)C(=O)Nc1cccc(-c2ccc(Oc3ccc(F)cc3)cc2)n1 [Compound 4, (S)-2-acetamido-N-(6-(4-(4-fluorophenoxy)phenyl)pyridin-2-yl)-3-phenylpropanamide] |  | 0.13 ± 0.03 |  | 0.064 ± 0.02
4 | CC(C)C[C@H](NC(=O)NC(C)(C)C)C(=O)Nc1cccc(-c2ccc(Oc3ccc(F)cc3)cc2)n1 [Compound 13, (S)-2-(3-(tert-butyl)ureido)-N-(6-(4-(4-fluorophenoxy)phenyl)pyridin-2-yl)-4-methylpentanamide] |  | 0.075 ± 0.02 | 10.2 ± 0.2 | 0.075 ± 0.017
5 | N[C@@H](CO)C(=O)Nc1cccc(-c2ccc(Oc3ccc(F)cc3)cc2)n1 [Compound 70, (S)-2-Amino-N-{6-[4-(4-fluoro-phenoxy)-phenyl]-pridin-2-yl}-3-hydroxy-propionamide] |  | 0.046 | 0.803 ± 0.2 | 0.27 ± 0.032
6 | CS(=O)(=O)N[C@@H](Cc1c[nH]cn1)C(=O)Nc1cccc(-c2ccc(Oc3ccc(F)cc3)cc2)n1 [Compound 38, (S)-N-(6-(4-(4-fluorophenoxy)phenyl)pyridin-2-yl)-3-(1H-imidazol-4-yl)-2-(methylsulfonamido)propanamide] | 0.14 ± 0.03 | 0.019 ± 0.01 | 1.2 ± 0.31 | 
7 | CC(=O)N[C@@H](Cc1c[nH]cn1)C(=O)Nc1cccc(-c2ccc(Oc3ccc(F)cc3)cc2)n1 [Compound 32, (S)-2-acetamido-N-(6-(4-(4-fluorophenoxy)phenyl)pyridin-2-yl)-3-(1H-imidazol-4-yl)propanamide] | 0.086 ± 0.02 | 0.025 | 0.58 ± 0.1 | 
8 | O=C(Nc1cccc(-c2ccc(Oc3ccc(F)cc3)cc2)n1)C(O)CO (stereo not shown) [Compound 72, N-(6-(4-(4-fluorophenoxy)phenyl)pyridin-2-yl)-2,3-dihydroxypropanamide] |  | 0.143 ± 0.03 | 8.91 ± 1.21 | 0.074
9 | CC(C)C[C@H](NC(=O)c1ccccn1)C(=O)Nc1cccc(-c2ccc(Oc3ccc(F)cc3)cc2)n1 [Compound 7, (S)-N-(1-((6-(4-(4-fluorophenoxy)phenyl)pyridin-2-yl)amino)-4-methyl-1-oxopentan-2-yl)picolinamide] | 0.067 ± 0.007 | 0.059 ± 0.01 | 18 ± 1 | 
10 | O=C1NCCN1CCNc1cc([C@H](O)CO)cc(-c2ccc(Oc3ccc(F)cc3)cc2)n1 [Compound 66, (S)-1-(2-((4-(1,2-dihydroxyethyl)-6-(4-(4-fluorophenoxy)phenyl)pyridin-2-yl)amino)ethyl)imidazolidin-2-one] |  | 1.37 ± 0.17 |  | 5 ± 0.88
11 | CC(=O)N[C@@H](CC(C)C)C(=O)Nc1cccc(-c2ccc(Oc3ccc(F)cc3)cc2)n1 [Compound 3, (S)-2-acetamido-N-(6-(4-(4-fluorophenoxy)phenyl)pyridin-2-yl)-4-methylpentanamide] |  | 0.194 ± 0.07 |  | 0.042 ± 0.02
12 | O=C(N[C@@H](CO)C(=O)Nc1cccc(-c2ccc(Oc3ccc(F)cc3)cc2)n1)c1cccnc1 [Compound 56, N-((S)-1-{6-[4-(4-Fluoro-phenoxy)-phenyl]-pyridin-2-ylcarbamoyl}-2-hydroxy-ethyl)-nicotinamide] | 0.14 ± 0.05 | 0.195 ± 0.07 | 32.2 ± 8.38 | 
13 | CC(C)C[C@H](NC(N)=O)C(=O)Nc1cccc(-c2ccc(Oc3ccc(F)cc3)cc2)n1 [Compound 12, (S)-N-(6-(4-(4-fluorophenoxy)phenyl)pyridin-2-yl)-4-methyl-2-ureidopentanamide] |  | 0.257 ± 0.06 | 5.06 | 0.096 ± 0.004
14 | Nc1nc(O)cc(C(=O)Nc2cccc(-c3ccc(Oc4ccc(F)cc4)cc3)n2)n1 [Compound 65, 2-amino-N-(6-(4-(4-fluorophenoxy)phenyl)pyridin-2-yl)-6-hydroxypyrimidine-4-carboxamide] |  |  |  | > 20
15 | CS(=O)(=O)N(C[C@H](O)CO)c1cc(Cl)cc(-c2ccc(Oc3ccc(F)cc3)cc2)n1 [Compound 17, (S)-N-(4-chloro-6-(4-(4-fluorophenoxy)phenyl)pyridin-2-yl)-N-(2,3-dihydroxypropyl)methanesulfonamide] | 0.094 ± 0.03 |  |  | 
16 | CS(=O)(=O)Nc1cc(Cl)cc(-c2ccc(Oc3ccc(F)cc3)cc2)n1 [Compound 15, N-(4-chloro-6-(4-(4-fluorophenoxy)phenyl)pyridin-2-yl)methanesulfonamide] | 0.26 ± 0.07 |  |  | 
17 | O=C(N[C@@H](CO)C(=O)Nc1cccc(-c2ccc(Oc3ccc(F)cc3)cc2)n1)C1CC1 [Compound 55, Cyclopropanecarboxylic acid ((S)-1-{6-[4-(4-fluoro-phenoxy)-phenyl]-pyridin-2-ylcarbamoyl}-2-hydroxy-ethyl)-amide] | 0.06 ± 0.006 |  |  | 
